Columns and labels:
giant foxtail = assay: Test A postemergence; assay type: in vivo, Setaria faberii; settings: Setaria faberi, post-emergence, 240 h
Procedure, shortened: (§1)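 Visual injury scored 0–100 (100 = complete control) against untreated controls about 10 days after treatment in a greenhouse. Test chemicals, formulated with surfactant in non-phytotoxic solvent, were sprayed on soil preemergence or on 2-10 cm, one- to two-leaf plants postemergence.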

oilseed rape = assay: Test C postemergence; assay type: in vivo, Brassica napus; settings: Brassica napus, post-emergence
Procedure, shortened: (§2)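 Greenhouse herbicide screen. Pre: seeded loam/sand, sprayed at planting. Post: 1–4 leaf plants (2–18 cm) in peat-based mix. Formulation: solvent mixture + surfactant, non-phytotoxic. Readout: visual % control vs untreated, 13–15 d; dash = not tested.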

Heteranthera limosa = assay: Test B flooded paddy test; assay type: in vivo; settings: Heteranthera limosa, Flood, 250 g ai/ha; 0 to 100 scale where 0 is no effect and 100 is complete control; read-out: Plant response rating, Ducksalad
Procedure, shortened: (§3)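 Visual ratings on a 0 to 100 scale, where 100 means complete control, compared treated plants with controls after 13 to 15 days in a greenhouse. Treatment went into paddy water 3 cm deep over the soil, applied to plants at the 2-leaf stage.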

velvetleaf [1] = assay: Test A preemergence; assay type: in vivo, Abutilon theophrasti
Procedure, shortened: as §1

rice = assay: Test B flooded paddy test; assay type: in vivo, Oryza sativa; settings: Oryza sativa; Flood, 250 g ai/ha; 0 to 100 scale where 0 is no effect and 100 is complete control; read-out: Plant response rating, Rice
Procedure, shortened: as §3

velvetleaf [2] = assay: Test C postemergence; assay type: in vivo, Abutilon theophrasti; settings: Abutilon theophrasti, post-emergence
Procedure, shortened: as §2

lambsquarters = assay: Test C postemergence; assay type: in vivo, Chenopodium album; settings: Chenopodium album, post-emergence
Procedure, shortened: as §2

kochia = assay: Test C postemergence; assay type: in vivo, Kochia scoparia; settings: Bassia scoparia, post-emergence
Procedure, shortened: as §2

wheat [3] = assay: Test A preemergence; assay type: in vivo, Triticum aestivum
Procedure, shortened: as §1

large (Lg) crabgrass [4] = assay: Test A postemergence; assay type: in vivo, Digitaria sanguinalis; settings: Digitaria sanguinalis, post-emergence, 240 h
Procedure, shortened: as §1

morningglory = assay: Test C postemergence; assay type: in vivo, Ipomoea coccinea; settings: Ipomoea, post-emergence
Procedure, shortened: as §2

wheat [5] = assay: Test A postemergence; assay type: in vivo, Triticum aestivum; settings: Triticum aestivum, post-emergence, 240 h
Procedure, shortened: as §1

large (Lg) crabgrass [6] = assay: Test A preemergence; assay type: in vivo, Digitaria sanguinalis; settings: Digitaria sanguinalis, pre-emergence, 240 h
Procedure, shortened: as §1

pigweed = assay: Test C postemergence; assay type: in vivo, Amaranthus retroflexus; settings: Amaranthus retroflexus, post-emergence
Procedure, shortened: as §2

velvetleaf [7] = assay: Test A postemergence; assay type: in vivo, Abutilon theophrasti; settings: Abutilon theophrasti, post-emergence, 240 h
Procedure, shortened: as §1

soybean = assay: Test C postemergence; assay type: in vivo, Glycine max; settings: Glycine max, post-emergence
Procedure, shortened: as §2

[8] = 125 g ai/ha, 0 to 100 scale where 0 is no effect and 100 is complete control
[9] = 125 g ai/ha, 0 to 100 scale where 0 is no effect and 100 is complete control, read-out: Plant response rating, Crabgrass, Large

N#Cc1cccc(Oc2ncc(Cl)cn2)c1-n1cc(Br)cn1 [Compound 52, 2-(4-bromo-1H-pyrazol-1-yl)-3-[(5-chloro-2-pyrimidinyl)oxy]benzonitrile]
pest or weed control at 125 g/ha (giant foxtail; 125 g ai/ha, 0 to 100 scale where 0 is no effect and 100 is complete control, read-out: Plant response rating, Foxtail, Giant): 90%
pest or weed control at 500 g/ha (giant foxtail; 500 g ai/ha, 0 to 100 scale, 0 no effect, 100 complete control, read-out: Plant response rating Foxtail, Giant): 100%
plant injury at 125 g/ha (oilseed rape; 125 g ai/ha, postemergence, read-out: Plant response rating (0 to 100), Oilseed Rape): 70%
plant injury at 250 g/ha (oilseed rape; 250 g ai/ha, postemergence, read-out: Plant response rating (0 to 100), Oilseed Rape): 85%
plant injury at 31 g/ha (oilseed rape; Postemergence, 31 g ai/ha, scale 0 to 100 (0 no effect, 100 complete control), 13 to 15 days, read-out: Plant response rating, Oilseed Rape): 25%
plant injury at 62 g/ha (oilseed rape; Postemergence, 62 g ai/ha, scale 0 to 100 (0 no effect, 100 complete control), read-out: Plant response rating, Oilseed Rape): 40%
pest or weed control at 250 g/ha (Heteranthera limosa): 70%
Plant response rating, Velvetleaf (velvetleaf [1]; [8]): 100
pest or weed control at 500 g/ha (velvetleaf [1]; Abutilon theophrasti, pre-emergence, 240 h, 500 g ai/ha, 0 to 100 scale, 0 no effect, 100 complete control, approx. 10 days, read-out: Velvetleaf plant response rating): 100%
plant injury at 250 g/ha (rice): 20%
pest or weed control at 125 g/ha (velvetleaf [2]; 125 g ai/ha, postemergence, read-out: Plant response rating (0 to 100), Velvetleaf): 70%
pest or weed control at 250 g/ha (velvetleaf [2]; 250 g ai/ha, postemergence, read-out: Plant response rating (0 to 100), Velvetleaf): 90%
pest or weed control at 31 g/ha (velvetleaf [2]; Postemergence, 31 g ai/ha, scale 0 to 100 (0 no effect, 100 complete control), 13 to 15 days, read-out: Plant response rating, Velvetleaf): 50%
pest or weed control at 62 g/ha (velvetleaf [2]; Postemergence, 62 g ai/ha, scale 0 to 100 (0 no effect, 100 complete control), read-out: Plant response rating, Velvetleaf): 60%
pest or weed control at 125 g/ha (lambsquarters; 125 g ai/ha, postemergence, read-out: Plant response rating (0 to 100), Lambsquarters): 90%
pest or weed control at 250 g/ha (lambsquarters; 250 g ai/ha, postemergence, read-out: Plant response rating (0 to 100), Lambsquarters): 100%
pest or weed control at 31 g/ha (lambsquarters; Postemergence, 31 g ai/ha, scale 0 to 100 (0 no effect, 100 complete control), 13 to 15 days, read-out: Plant response rating, Lambsquarters): 85%
pest or weed control at 62 g/ha (lambsquarters; Postemergence, 62 g ai/ha, scale 0 to 100 (0 no effect, 100 complete control), read-out: Plant response rating, Lambsquarters): 90%
pest or weed control at 125 g/ha (kochia; 125 g ai/ha, postemergence, read-out: Plant response rating (0 to 100), Kochia): 90%
pest or weed control at 250 g/ha (kochia; 250 g ai/ha, postemergence, read-out: Plant response rating (0 to 100), Kochia): 95%
pest or weed control at 31 g/ha (kochia; Postemergence, 31 g ai/ha, scale 0 to 100 (0 no effect, 100 complete control), 13 to 15 days, read-out: Plant response rating, Kochia): 75%
pest or weed control at 62 g/ha (kochia; Postemergence, 62 g ai/ha, scale 0 to 100 (0 no effect, 100 complete control), read-out: Plant response rating, Kochia): 90%
Plant response rating, Wheat (wheat [3]; [8]): 20
plant injury at 500 g/ha (wheat [3]; Triticum aestivum, pre-emergence, 240 h, 500 g ai/ha, 0 to 100 scale, 0 no effect, 100 complete control, approx. 10 days, read-out: Wheat plant response rating): 80%
pest or weed control at 125 g/ha (large (Lg) crabgrass [4]; [9]): 90%
pest or weed control at 500 g/ha (large (Lg) crabgrass [4]; 500 g ai/ha, 0 to 100 scale, 0 no effect, 100 complete control, read-out: Plant response rating Crabgrass, Large): 100%
pest or weed control at 125 g/ha (morningglory; 125 g ai/ha, postemergence, read-out: Plant response rating (0 to 100), Morningglory): 95%
pest or weed control at 250 g/ha (morningglory; 250 g ai/ha, postemergence, read-out: Plant response rating (0 to 100), Morningglory): 100%
pest or weed control at 31 g/ha (morningglory; Postemergence, 31 g ai/ha, scale 0 to 100 (0 no effect, 100 complete control), 13 to 15 days, read-out: Plant response rating, Morningglory): 80%
pest or weed control at 62 g/ha (morningglory; Postemergence, 62 g ai/ha, scale 0 to 100 (0 no effect, 100 complete control), read-out: Plant response rating, Morningglory): 80%
plant injury at 125 g/ha (wheat [5]; 125 g ai/ha, 0 to 100 scale where 0 is no effect and 100 is complete control, read-out: Plant response rating, Wheat): 40%
plant injury at 500 g/ha (wheat [5]; 500 g ai/ha, 0 to 100 scale, 0 no effect, 100 complete control, read-out: Plant response rating Wheat): 100%
pest or weed control at 125 g/ha (large (Lg) crabgrass [6]; [9]): 100%
pest or weed control at 500 g/ha (large (Lg) crabgrass [6]; 500 g ai/ha, 0 to 100 scale, 0 no effect, 100 complete control, approx. 10 days, read-out: Crabgrass, Large plant response rating): 100%
pest or weed control at 125 g/ha (pigweed; 125 g ai/ha, postemergence, read-out: Plant response rating (0 to 100), Pigweed): 80%
pest or weed control at 250 g/ha (pigweed; 250 g ai/ha, postemergence, read-out: Plant response rating (0 to 100), Pigweed): 95%
pest or weed control at 31 g/ha (pigweed; Postemergence, 31 g ai/ha, scale 0 to 100 (0 no effect, 100 complete control), 13 to 15 days, read-out: Plant response rating, Pigweed): 60%
pest or weed control at 62 g/ha (pigweed; Postemergence, 62 g ai/ha, scale 0 to 100 (0 no effect, 100 complete control), read-out: Plant response rating, Pigweed): 60%
pest or weed control at 125 g/ha (velvetleaf [7]; 125 g ai/ha, 0 to 100 scale where 0 is no effect and 100 is complete control, read-out: Plant response rating, Velvetleaf): 100%
pest or weed control at 500 g/ha (velvetleaf [7]; 500 g ai/ha, 0 to 100 scale, 0 no effect, 100 complete control, read-out: Plant response rating Velvetleaf): 100%
Soybean plant response rating (crop injury, 0-100 scale) at 125 g/ha (soybean; 125 g ai/ha, postemergence, read-out: Plant response rating (0 to 100), Soybean): 95%
Soybean plant response rating (crop injury, 0-100 scale) at 250 g/ha (soybean; 250 g ai/ha, postemergence): 95%
Soybean plant response rating (crop injury, 0-100 scale) at 31 g/ha (soybean; Postemergence, 31 g ai/ha, scale 0 to 100 (0 no effect, 100 complete control), 13 to 15 days): 40%
Soybean plant response rating (crop injury, 0-100 scale) at 62 g/ha (soybean; Postemergence, 62 g ai/ha, scale 0 to 100 (0 no effect, 100 complete control)): 90%

Reference: US9695155B2, “Herbicidal substituted pyrimidinyloxy benzene compounds” (E. I. DU PONT DE NEMOURS AND COMPANY, priority 2013, dated 2017)
